Experimental data reported in patent US20080188564A1, “Insecticidal and Nematicidal Compositions and Methods of Use” (priority 2004, published 2008).

Columns and labels:
H. megidis = conditions: concentrations up to 200 ug/ml; cited from earlier work
Caenorhabditis elegans = conditions: at 100 ug/ml; cited from earlier work
Meloidogyne incognita = conditions: at 100 ug/ml; cited from earlier work
[1] = system: voltage-gated chloride channels; conditions: Torpedo membranes vs rat brain membranes; cited from earlier work
C. elegans = assay: Toxicity of DIDS on C. elegans (96 well plate); type: in vivo, Caenorhabditis elegans
Method: (§1) We determined the toxicity of DIDS to infective juveniles of M. incognita and H. bacteriophora. Infective juveniles were assayed because they represent the only free-living life stage for both nematode species; adults live within their respective hosts and are not amenable to this type of test. Further, the infective juvenile of M. incognita would likely be the target of a nematicide based upon this material. The tests were conducted in either 35 mm Petri dishes or 96 well plates, holding the test material dissolved in DMSO and dispersed into tap water. Each dish was considered a replicate and contained 10-30 nematodes of either species. Each well of the 96-well plates had one nematode.
(§2) To further characterize the nematode-inhibiting effect of a stilbene compound (DIDS), experiments were performed as described above, using a 96 well plate and 10-30 nematodes per well, and using the plant parasite M. incognita and the free-living C. elegans. The results are depicted in Tables 1 and 2.

M. incognita = assay: Toxicity of DIDS on M. incognita infective juveniles; type: in vivo, Meloidogyne incognita
Method: Meloidogyne incognita cultures were maintained on potted tomatoes (c.v. Rutgers) in a greenhouse. Infective juvenile nematodes for analysis were extracted as eggs from infected tomato roots by shaking the roots in 1% bleach for 2 minutes. Eggs were captured in a 500-mesh sieve, rinsed in water and placed in Baerman funnels. When the eggs hatched, the juveniles moved downward in the funnels, and hatched infective juveniles were collected after 48 hours.
as §1
DIDS-H.b.=DIDS-exposed H. bacteriophora; DIDS-M.i.=DIDS-exposed Meloidogyne incognita. DIDS was dissolved in DMSO, and DMSO-M.i.=DMSO-exposed Meloidogyne incognita. Average percentage mortality for each treatment group was calculated from 5 replicates containing 10 nematodes each. Bars are means±SEM.
as §2

SMILES: CC(C)c1c(O)cc(C=Cc2ccccc2)cc1O [DST, 3,5-dihydroxy-4-isopropylstilbene]
- sensitivity to DST (H. megidis): completely insensitive
- 24 hr lethality (Caenorhabditis elegans): 100%
- 24 hr lethality (Meloidogyne incognita): 100%

SMILES: Cl[C@H]1[C@H](Cl)[C@@H](Cl)[C@@H](Cl)[C@H](Cl)[C@H]1Cl [lindane]
- potency as inhibitor of [35S]TBPS binding, Torpedo membranes relative to rat brain [1]: about 4 fold

SMILES: O=S(=O)(O)c1cc(N=C=S)ccc1/C=C/c1ccc(N=C=S)cc1S(=O)(=O)O [DIDS, trans-4,4′-diisothiocyanatostilbene-2,2′-disulfonic acid]
- LC50 (C. elegans; 1-day (24 hr)): 196.13 ppm
- Slope (C. elegans; 1-day (24 hr)): 1.43 ± 0.35
- LC50 (C. elegans; 2-day (48 hr)): 83.70 ppm
- Slope (C. elegans; 2-day (48 hr)): 1.45 ± 0.29
- LC50 (C. elegans; 3-day (72 hr)): 31.53 ppm
- Slope (C. elegans; 3-day (72 hr)): 1.87 ± 0.28
- LC50 (C. elegans; 5-day (120 hr)): 15.69 ppm
- Slope (C. elegans; 5-day (120 hr)): 2.86 ± 0.36
- LC50 (C. elegans; 7-day (168 hr)): 10.67 ppm
- Slope (C. elegans; 7-day (168 hr)): 4.57 ± 0.71
- time until toxic (C. elegans; DIDS at 10 ppm): 2 days
- time to paralysis (C. elegans; free-living nematode): 2 days
- LC50 (M. incognita; 1-day (24 hr)): 160.03 ppm
- Slope (M. incognita; 1-day (24 hr)): 1.77 ± 0.50
- LC50 (M. incognita; 2-day (48 hr)): 97.91 ppm
- Slope (M. incognita; 2-day (48 hr)): 1.52 ± 0.30
- LC50 (M. incognita; 3-day (72 hr)): 37.84 ppm
- Slope (M. incognita; 3-day (72 hr)): 1.83 ± 0.30
- LC50 (M. incognita; 5-day (120 hr)): 17.07 ppm
- Slope (M. incognita; 5-day (120 hr)): 2.75 ± 0.36
- LC50 (M. incognita; 7-day (168 hr)): 11.58 ppm
- Slope (M. incognita; 7-day (168 hr)): 4.04 ± 0.59
- toxicity (mortality) to nematodes (M. incognita; 24 hr, 100 ug/ml (200 uM), in DMSO/tap water): paralytic/lethal
- time until toxic (M. incognita; DIDS at 10 ppm): 2 days
- time to paralysis (M. incognita; plant parasite nematode): 2 days
